test system: silver leaf whitefly; test: Test Example 6: spray on cabbage with hatched larvae of silver leaf whitefly; format: in vivo; details: Bemisia argentifolii, 168 h; 500 ppm spray solution, 20 ml/cup on cabbage with hatched larvae of silver leaf whitefly; counted seven days after spraying; read-out: Controlling value
Method: At the same time, cabbage was planted in a polyethylene cup, and grown until the first true leaf was developed. All leaves excluding the first true leaf were cut off. On the first true leaf, imagoes of silver leaf whitefly were released and allowed to lay eggs for about 24 hours. The cabbage was retained in a greenhouse for 8 days. When larvae hatched from the laid eggs, the test spray solution as described above was sprayed in an amount of 20 ml/cup to the cabbage. Seven days after spraying, the number of larvae surviving on the cabbage was counted, and a controlling value was calculated by the following equation: Controlling value(%)={1−(Cb×Tai)/(Cai×Tb)}×100 wherein, Cb: the number of worms in a non-treated section before treatment Cai: the number of worms in a non-treated section on observation Tb: the number of worms in a treated-section before treatment Tai: the number of worms in a treated-section on observation.

| Compound | pest or weed control at 500 ppm [%] |
| --- | --- |
| COC(=O)N(C)N(C)C(=O)c1cc(Br)cc(Br)c1NC(=O)c1cc(Br)nn1-c1ncccc1Cl [(204)] | ≥ 90 |
| COC(=O)NNC(=O)c1cc(Cl)cc(C)c1NC(=O)c1cc(C(F)(F)F)nn1-c1ncccc1Cl [(5)] | ≥ 90 |
| COC(=O)NNC(=O)c1cc(Cl)cc(C)c1NC(=O)c1cc(Br)nn1-c1ncccc1Cl [(34)] | ≥ 90 |
| COC(=O)NNC(=O)c1cc(Cl)cc(C)c1NC(=O)c1ccc(Cl)n1-c1ncccc1Cl [(129)] | ≥ 90 |
| CCOC(=O)NNC(=O)c1cccc(C)c1NC(=O)c1cc(C(F)(F)F)nn1-c1ncccc1Cl [(32)] | ≥ 90 |
| COC(=O)N(NC(=O)c1cc(Br)cc(Br)c1NC(=O)c1cc(Br)cn1-c1ncccc1Cl)C(=O)OC [(201)] | ≥ 90 |
| Cc1cc(Cl)cc(C(=O)NNC(=O)OCCF)c1NC(=O)c1cc(Br)nn1-c1ncccc1Cl [(221)] | ≥ 90 |
| COC(=O)N(C)NC(=O)c1cc(Cl)cc(C)c1NC(=O)c1cc(Br)nn1-c1ncccc1Cl [(114)] | ≥ 90 |
| COC(=O)N(C)N(C)C(=O)c1cc(C#N)cc(C)c1NC(=O)c1cc(Br)nn1-c1ncccc1Cl [(144)] | ≥ 90 |
| COC(=O)N(NC(=O)c1cc(Cl)cc(C)c1NC(=O)c1cc(Br)cn1-c1ncccc1Cl)C(=O)OC [(158)] | ≥ 90 |
| COC(=O)NNC(=O)c1cc(Cl)cc(C)c1NC(=O)c1cc(Cl)cn1-c1ncccc1Cl [(153)] | ≥ 90 |
| C#CCOC(=O)NNC(=O)c1cc(Br)cc(Br)c1NC(=O)c1cc(Br)cn1-c1ncccc1Cl [(223)] | ≥ 90 |
| COC(=O)NNC(=O)c1cc(Cl)cc(C)c1NC(=O)c1cc(Br)c(Br)n1-c1ncccc1Cl [(127)] | ≥ 90 |
| COC(=O)NNC(=O)c1cc(Cl)cc(Br)c1NC(=O)c1cc(C(F)(F)F)nn1-c1ncccc1Cl [(59)] | ≥ 90 |
| COC(=O)N(C)N(C)C(=O)c1cc(Cl)cc(Cl)c1NC(=O)c1cc(Br)nn1-c1ncccc1Cl [(231)] | ≥ 90 |
| COC(=O)N(C)NC(=O)c1cc(Br)cc(Br)c1NC(=O)c1cc(Br)cn1-c1ncccc1Cl [(209)] | ≥ 90 |
| COC(=O)N(C)N(C)C(=O)c1cc(Cl)cc(C)c1NC(=O)c1cc(Br)nn1-c1ncccc1Cl [(119)] | ≥ 90 |
| COC(=O)NNC(=O)c1cc(Br)cc(Br)c1NC(=O)c1ccc(S(C)(=O)=O)n1-c1ncccc1Cl [(226)] | ≥ 90 |
| COCCOC(=O)N(NC(=O)c1cc(Cl)cc(C)c1NC(=O)c1cc(Br)nn1-c1ncccc1Cl)C(=O)OC [(215)] | ≥ 90 |
| COC(=O)NNC(=O)c1cc(Cl)cc(Cl)c1NC(=O)c1cc(C(F)(F)F)nn1-c1ncccc1Cl [(56)] | ≥ 90 |
| COC(=O)N(NC(=O)c1cc(Cl)cc(Br)c1NC(=O)c1cc(Br)nn1-c1ncccc1Cl)C(=O)OC [(107)] | ≥ 90 |
| COC(=O)NNC(=O)c1cc(Cl)cc(C)c1NC(=O)c1cc(Br)cn1-c1ncccc1Cl [(93)] | ≥ 90 |

test system: Frankliniella occidentalis; test: Test Example 5: sprayed cucumber leaf, larvae of Frankliniella occidentalis; format: in vivo; details: 168 h; 500 ppm spray solution, 20 ml/cup on cucumber, cut first true leaf; 20 larvae of Frankliniella occidentalis; counted seven days after spraying; read-out: Controlling value
Method: At the same time, cucumber was planted in a polyethylene cup, and was grown until the first true leaf was developed. The test spray solution as described above was sprayed in an amount of 20 ml/cup on the cucumber. After the drug solution sprayed on the cucumber was dried, the first true leaf was cut and then placed on a filter paper (diameter: 70 mm) containing water in a polyethylene cup (diameter: 110 mm). On the cucumber leaf, 20 larvae of Frankliniella occidentalis were released, and the polyethylene cup was capped. Seven days after spraying, the number of insects surviving on the cucumber leaf was counted, and a controlling value was calculated by the following equation: Controlling value(%)={1−(Cb×Tai)/(Cai×Tb)}×100 wherein, Cb: the number of insects in a non-treated section before treatment Cai: the number of insects in a non-treated section on observation Tb: the number of insects in a treated-section before treatment Tai: the number of insects in a treated-section on observation.

| Compound | pest or weed control at 500 ppm [%] |
| --- | --- |
| COC(=O)NNC(=O)c1ccc(Cl)c(C)c1NC(=O)c1cc(Br)nn1-c1ncccc1Cl [(85)] | ≥ 90 |
| COC(=O)NNC(=O)c1cc2ccccc2c(Br)c1NC(=O)c1cc(Br)nn1-c1ncccc1Cl [(140)] | ≥ 90 |
| CSC(=O)NNC(=O)c1cc(Cl)cc(C)c1NC(=O)c1cc(C(F)(F)F)nn1-c1ncccc1Cl [(29)] | ≥ 90 |
| COC(=O)NNC(=O)c1cc(Cl)cc(I)c1NC(=O)c1cc(Br)nn1-c1ncccc1Cl [(79)] | ≥ 90 |
| COC(=O)NNC(=O)c1cc(Cl)cc(C)c1NC(=O)c1cc(Br)cn1-c1ccncc1Cl [(187)] | ≥ 90 |
| COC(=O)N(NC(=O)c1cc(Cl)cc(C)c1NC(=O)c1cc(Cl)c(Cl)n1-c1ncccc1Cl)C(=O)OC [(167)] | ≥ 90 |
| COC(=O)NNC(=O)c1cc(Cl)cc(C)c1NC(=O)c1cc(SC)nn1-c1ncccc1Cl [(99)] | ≥ 90 |
| COC(=O)NNC(=O)c1cc([N+](=O)[O-])cc(C)c1NC(=O)c1cc(Br)nn1-c1ncccc1Cl [(183)] | ≥ 90 |
| COC(=O)NNC(=O)c1c(Cl)ccc(C)c1NC(=O)c1cc(Br)nn1-c1ncccc1Cl [(88)] | ≥ 90 |
| COC(=O)NNC(=O)c1cc(Br)cc(Br)c1NC(=O)c1ccc(SC)n1-c1ncccc1Cl [(227)] | ≥ 90 |
| CN(C)C(=O)NN(C)C(=O)c1cc(Br)cc(Br)c1NC(=O)c1cc(Br)cn1-c1ncccc1Cl [(206)] | ≥ 90 |
| COC(=O)N(C)N(C)C(=O)c1cc(Cl)cc(Cl)c1NC(=O)c1cc(Br)nn1-c1ncccc1Cl [(231)] | ≥ 90 |
| COC(=O)NNC(=O)c1cc(Br)cc(Br)c1NC(=O)c1ccc(S(C)(=O)=O)n1-c1ncccc1Cl [(226)] | ≥ 90 |
| CC(=O)NNC(=O)c1cc(Cl)cc(C)c1NC(=O)c1cc(C(F)(F)F)nn1-c1ncccc1Cl [(27)] | ≥ 90 |
| COC(=O)N(NC(=O)c1cc(Cl)cc(C)c1NC(=O)c1cc(Cl)cn1-c1ncccc1Cl)C(=O)OC [(159)] | ≥ 90 |
| COC(=O)NNC(=O)c1cccc(C(F)(F)F)c1NC(=O)c1cc(Br)nn1-c1ncccc1Cl [(81)] | ≥ 90 |
| Cc1cc(Cl)cc(C(=O)NNC=O)c1NC(=O)c1cc(C(F)(F)F)nn1-c1ncccc1Cl [(17)] | ≥ 90 |

test system: cotton aphids; test: Test Example 2: spray on cucumber infested with cotton aphids; format: in vivo, Aphis gossypii; details: 500 ppm spray solution, 20 ml/cup on cucumber with about 30 cotton aphids; counted six days after spraying
Method: At the same time, cucumber was planted in a polyethylene cup, and was grown until the first true leaf was developed. About 30 cotton aphids were put on the cucumber. One day after, the test spray solution as described above was sprayed in an amount of 20 ml/cup on the cucumber. Six days after spraying, the number of cotton aphids was counted, and a controlling value was calculated by the following equation: Controlling value(%)={1−(Cb×Tai)/(Cai×Tb)}×100 wherein, Cb: the number of insects in a non-treated section before treatment Cai: the number of insects in a non-treated section on observation Tb: the number of insects in a treated-section before treatment Tai: the number of insects in a treated-section on observation. Furthermore, the same way as Test Example 2, test spray solution of the comparative compound of the formula: […]

| Compound | Controlling value |
| --- | --- |
| COC(=O)CNC(=O)c1cccc(C)c1NC(=O)c1cc(C(F)(F)F)nn1-c1ncccc1Cl | less than 30% |
